Consider 24 molecules from patent US11555012B2 (Nimbus Artemis, Inc., priority 2018, dated 2023).

In assay [1] the target is T1, ACL (Homo sapiens (Human), UniProt P53396). In words: ACLY-MDH Coupled Assay.
Target sequence in this assay (P53396 whole entry, species assumed): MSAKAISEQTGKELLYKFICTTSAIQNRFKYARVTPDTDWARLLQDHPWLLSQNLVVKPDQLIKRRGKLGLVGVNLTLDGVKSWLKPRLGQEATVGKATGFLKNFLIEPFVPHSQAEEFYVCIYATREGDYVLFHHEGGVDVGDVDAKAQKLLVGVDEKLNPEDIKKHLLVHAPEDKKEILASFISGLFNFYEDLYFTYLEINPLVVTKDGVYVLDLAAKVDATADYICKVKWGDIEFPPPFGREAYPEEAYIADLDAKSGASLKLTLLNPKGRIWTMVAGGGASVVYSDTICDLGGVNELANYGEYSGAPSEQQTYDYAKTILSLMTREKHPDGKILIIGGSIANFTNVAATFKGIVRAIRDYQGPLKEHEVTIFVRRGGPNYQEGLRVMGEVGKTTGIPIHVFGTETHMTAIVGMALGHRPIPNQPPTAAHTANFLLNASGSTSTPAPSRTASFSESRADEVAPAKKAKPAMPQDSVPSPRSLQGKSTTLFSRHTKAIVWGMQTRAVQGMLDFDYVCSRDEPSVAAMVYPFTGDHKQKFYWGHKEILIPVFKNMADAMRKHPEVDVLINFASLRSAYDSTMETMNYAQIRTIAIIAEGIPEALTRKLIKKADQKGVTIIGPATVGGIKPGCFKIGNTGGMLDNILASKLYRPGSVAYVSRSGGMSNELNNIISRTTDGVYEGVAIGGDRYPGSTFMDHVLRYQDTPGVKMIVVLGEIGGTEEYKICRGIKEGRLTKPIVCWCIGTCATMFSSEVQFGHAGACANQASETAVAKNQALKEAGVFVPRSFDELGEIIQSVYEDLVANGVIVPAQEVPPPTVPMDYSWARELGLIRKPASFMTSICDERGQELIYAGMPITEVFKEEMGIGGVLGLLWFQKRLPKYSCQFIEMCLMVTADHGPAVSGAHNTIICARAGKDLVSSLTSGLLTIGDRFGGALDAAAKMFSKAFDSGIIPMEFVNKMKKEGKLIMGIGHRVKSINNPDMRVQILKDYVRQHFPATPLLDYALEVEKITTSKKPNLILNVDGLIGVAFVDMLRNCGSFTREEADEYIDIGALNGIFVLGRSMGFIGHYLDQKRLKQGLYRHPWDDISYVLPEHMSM
Description: Compounds of the present invention were evaluated in an ACLY Coupled Assay.
The assay protocol for the Coupled Assay (below) was followed:
b) Add 1 μL cpds to 96 assay plate, Test cpd conc: 100/30/10 μM top dose, 3 folds dilution, 10+0+control (control: buffer without ACL+DMSO) points, 1000 rpm for 1 min, incubation at 25° C. for 60 min
Assay [2] concerns HepG2 cells. To be noted: Homo sapiens, HepG2, read-out: ACLY HepG2 14C-Pyruvate Assay serum free IC50 Cholesterol (IC50) [μM].
Description: ACLY HepG2 ^14C-Pyruvate Incorporation Serum-Free Assay (IC50 Cholesterol and Fatty Acid Synthesis)
Compounds of the present invention were evaluated in a HepG2 ^14C-pyruvate incorporation assay. The protocol below was followed:
(§1) After 48 hours, change medium with fresh growth medium.
(§2) After 18 hours, replaced medium using 0.5 mL fresh medium (5.5 mM Glucose, without FBS, 1% PS, without Pyruvate) containing Compounds or 0.5% DMSO, incubated at 37° C., 5% CO2 for 1 hour.
(§3) Add 3 μci of [14C]-pyruvate per well to the cell samples were incubated at 37° C., 5% CO2 for 5 hours.
Medium was removed and placed into a 15 mL centrifuge tube. Add 0.5 mL of 0.1M NaOH to each well and then transfer the cell lysates into the corresponding 15 mL centrifuge tubes. 1.0 mL of EtOH and 0.17 mL 50% KOH were added to 15 mL tubes containing medium and cell suspensions, then shaking tube gently. […] Saponification 15 mL tubes containing medium and cell suspensions were incubated at 90° C. for 1 hour, then cooled to room temperature. […] Cholesterol Extraction 5 mL of petroleum ether was added per tube to extract Cholesterol, shaken vigorously, centrifuged at 1000 rpm for 5 min, and ˜5 mL of the petroleum ether layer was transferred to a new glass tube (18*180 mm). […] Acidification The samples in 15 mL tube were acidified directly with 1 mL concentrated HCl, make sure pH was below 1. […] Fatty Acids Extraction 5 mL of petroleum ether was added per tube, shaken vigorously, centrifuged at 1000 rpm for 5 min, 5 mL of the petroleum ether layer was transferred to the corresponding glass tube. […] Count The petroleum ether extracts were pooled and evaporated to dryness overnight. The residue from the petroleum ether fractions were resuspended in 500 μL of chloroform-hexane (1:1) containing 420 μg of linoleic acid as a carrier. Add 200 μL of resuspending (chloroform-hexane (1:1) containing 168 μg of linoleic acid) to 2 mL Ultima Gold™, after 30 min, count on a scintillation counter.
Assay [3] concerns HepG2 cells. To be noted: Homo sapiens, HepG2, read-out: ACLY HepG2 14C-Pyruvate Assay serum free IC50 FA (IC50) [μM].
Description: ACLY HepG2 ^14C-Pyruvate Incorporation Serum-Free Assay (IC50 Fatty
The protocol of the assay (below) was followed:
as §1, §2, §3
Medium was removed and placed into a 15 mL centrifuge tube. Add 0.5 mL of 0.1M NaOH to each well and then transfer the cell lysates into the corresponding 15 mL centrifuge tubes. 1.0 mL of EtOH and 0.17 mL 50% KOH were added to 15 mL tubes containing medium and cell suspensions, then shaking tube gently. […] Saponification 15 mL tubes containing medium and cell suspensions were incubated at 90° C. for 1 hour, then cooled to room temperature. […] Cholesterol Extraction 5 mL of petroleum ether was added per tube to extract Cholesterol, shaken vigorously, centrifuged at 1000 rpm for 5 min, and ˜5 mL of the petroleum ether layer was transferred to a new glass tube (18*180 mm). […] Acidification The samples in 15 mL tube were acidified directly with 1 mL concentrated HCl, make sure pH was below 1. […] Fatty Acids Extraction 5 mL of petroleum ether was added per tube, shaken vigorously, centrifuged at 1000 rpm for 5 min, 5 mL of the petroleum ether layer was transferred to the corresponding glass tube. […] Repeat the Step 8 10. Count The petroleum ether extracts were pooled and evaporated to dryness overnight. The residue from the petroleum ether fractions were resuspended in 500 μL of chloroform-hexane (1:1) containing 420 μg of linoleic acid as a carrier. Add 200 μL of resuspending (chloroform-hexane (1:1) containing 168 μg of linoleic acid) to 2 mL Ultima Gold™, after 30 min, count on a scintillation counter.
The target of assay [4] is T1, ACL. The assay is described as follows: ADP-Glo Assay.
Target sequence in this assay (P53396 other isoform, or with tags, fused parts or gaps isoform P53396-2): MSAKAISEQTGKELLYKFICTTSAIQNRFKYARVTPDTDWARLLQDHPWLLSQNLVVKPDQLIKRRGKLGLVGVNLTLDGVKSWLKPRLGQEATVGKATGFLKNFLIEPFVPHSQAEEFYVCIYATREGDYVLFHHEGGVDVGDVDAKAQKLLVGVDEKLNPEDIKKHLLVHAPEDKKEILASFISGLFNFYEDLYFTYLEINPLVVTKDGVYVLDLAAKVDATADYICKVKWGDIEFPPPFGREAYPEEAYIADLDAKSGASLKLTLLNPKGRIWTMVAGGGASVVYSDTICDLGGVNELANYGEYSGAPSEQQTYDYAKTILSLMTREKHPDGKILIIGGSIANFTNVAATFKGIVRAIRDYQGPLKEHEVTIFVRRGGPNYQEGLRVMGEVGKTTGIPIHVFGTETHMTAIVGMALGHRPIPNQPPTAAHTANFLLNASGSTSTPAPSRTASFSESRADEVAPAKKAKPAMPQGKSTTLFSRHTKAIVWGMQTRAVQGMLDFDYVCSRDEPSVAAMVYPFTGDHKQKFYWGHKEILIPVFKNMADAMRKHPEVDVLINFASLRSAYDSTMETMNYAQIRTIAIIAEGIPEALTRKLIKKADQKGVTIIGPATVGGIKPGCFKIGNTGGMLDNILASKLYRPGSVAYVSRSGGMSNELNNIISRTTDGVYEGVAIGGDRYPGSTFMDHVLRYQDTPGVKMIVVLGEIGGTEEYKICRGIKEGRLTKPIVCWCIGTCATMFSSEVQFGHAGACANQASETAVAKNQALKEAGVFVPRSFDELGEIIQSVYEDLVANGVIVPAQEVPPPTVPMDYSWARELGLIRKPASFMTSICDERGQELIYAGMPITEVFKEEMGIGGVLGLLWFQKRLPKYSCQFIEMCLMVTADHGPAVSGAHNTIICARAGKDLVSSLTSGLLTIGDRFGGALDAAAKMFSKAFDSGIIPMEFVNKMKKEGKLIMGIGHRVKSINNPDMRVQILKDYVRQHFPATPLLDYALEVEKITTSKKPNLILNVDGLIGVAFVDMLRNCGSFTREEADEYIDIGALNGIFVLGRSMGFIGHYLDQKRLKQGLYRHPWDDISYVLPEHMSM
Where [5] appears, read: read-out: ACL-MDH Coupled Assay (IC50), 8 nM ACL, 60 μM CoA Na2, 85 μM Citrate, 250 μM ATP, 250 μM NADH.
The mark [6] stands for this setting: read-out: ACL-ADP-Glo (IC50), 3 nM ACL, 15 μM ATP, 3 μM CoA, 300 μM Citrate.

pIC50: −log10 of the molar value. Read-outs that look alike come from different tables or passages of the source.

Consider `O=C(c1cc(Cl)c(O)c(S(=O)(=O)Nc2cc(-c3ccccc3)c(F)cc2F)c1)N1CCCC1` [I-82, 3-chloro-N-(4,6-difluoro-[1,1′-biphenyl]-3-yl)-2-hydroxy-5-(pyrrolidine-1-carbonyl)benzenesulfonamide], for which the pIC50 in assay [1] (setting [5]) and in assay [4] (setting [6]) was greater than 7.30 in each case. The IC50 in assay [2] is 1 to 5 µM; in assay [3], greater than 10 µM.

Consider `CC(C)OC(=O)c1cc(Cl)c(O)c(S(=O)(=O)Nc2cc(-c3ccccc3)c(F)cc2F)c1` [I-86, propan-2-yl 3-chloro-5-[(2,4-difluoro-5-phenylphenyl)sulfamoyl]-4-hydroxybenzoate], for which the pIC50 in assay [1] (setting [5]) and in assay [4] (setting [6]) was greater than 7.30 each time. In addition, the IC50 in assay [2] was 1 to 5 µM; in assay [3], greater than 10 µM.

As to `CON(C)C(=O)c1cc(Cl)c(O)c(S(=O)(=O)Nc2cc(-c3ccccc3)c(F)cc2F)c1` [I-87, 3-chloro-5-[(2,4-difluoro-5-phenylphenyl)sulfamoyl]-4-hydroxy-N-methoxy-N-methylbenzamide], the pIC50 in assay [1] (setting [5]) and in assay [4] (setting [6]) was greater than 7.30 in each case. Further, the IC50 was 1 to 5 µM in assay [2] and greater than 10 µM in assay [3].

As for `O=S(=O)(Nc1cc(-c2ccccc2)c(F)cc1F)c1cc(Br)cc(Cl)c1O` [I-88, 5-bromo-3-chloro-N-[4,6-difluoro-[1,1-biphenyl]-3-yl]-2-hydroxybenzene-1-sulfonamide], the pIC50 in assay [1] (setting [5]) and in assay [4] (setting [6]) was greater than 7.30 each time. The IC50 is 1 to 5 µM in assay [2] and greater than 10 µM in assay [3].

For the molecule `O=S(=O)(Nc1cc(-c2ccccc2)c(F)cc1F)c1cc(CO)cc(Cl)c1O` [I-90, 3-chloro-N-(2,4-difluoro-5-phenylphenyl)-2-hydroxy-5-(hydroxymethyl)benzene-1-sulfonamide], the pIC50 in assay [1] and in assay [4] was 6.30 to 7.30 throughout. Besides, the values for the 50% inhibitory concentration (IC50) in assay [2] and in assay [3] were 1 to 5 µM and greater than 10 µM, respectively.

For `COCc1cc(Cl)c(O)c(S(=O)(=O)Nc2cc(-c3ccccc3)c(F)cc2F)c1` [I-91, 3-chloro-N-(2,4-difluoro-5-phenylphenyl)-2-hydroxy-5-(methoxymethyl)benzene-1-sulfonamide], the pIC50 in assay [1] and in assay [4] was 6.30 to 7.30 each time. Further, the half-maximal inhibitory concentration (IC50) in assay [2] is 1 to 5 µM; in assay [3] it was 1 to 10 µM.

As for `O=C(c1cc(Cl)c(O)c(S(=O)(=O)Nc2cc(-c3ccccc3)c(F)cc2F)c1)N1CCC1` [I-98, 5-(azetidine-1-carbonyl)-3-chloro-N-(4,6-difluoro-[1,1′-biphenyl]-3-yl)-2-hydroxybenzenesulfonamide], the pIC50 in assay [1] (setting [5]) and in assay [4] (setting [6]) was greater than 7.30 throughout. The IC50 in assay [2] is 1 to 5 µM; in assay [3], greater than 10 µM.

In the case of `CCC(=O)c1cc(Cl)c(O)c(S(=O)(=O)Nc2cc(-c3ccccc3)c(F)cc2F)c1` [I-101, 3-chloro-N-(2,4-difluoro-5-phenylphenyl)-2-hydroxy-5-propanoylbenzene-1-sulfonamide], the pIC50 in assay [1] (setting [5]) and in assay [4] (setting [6]) was greater than 7.30 each time. For the same molecule, the IC50 in assay [2] is less than 1 µM; in assay [3], greater than 10 µM.

For the molecule `COC(=O)c1cc(Cl)c(O)c(S(=O)(=O)Nc2ccc(F)c(-c3ccccc3)c2F)c1` [I-110, Methyl 3-chloro-5-[(2,4-difluoro-3-phenylphenyl)sulfamoyl]-4-hydroxybenzoate], the values for the pIC50 in assay [1] and in assay [4] were 4.52 to 6.30 and 4.70 to 6.30, respectively. For the same molecule, the IC50 was 1 to 5 µM in assay [2] and greater than 10 µM in assay [3].

For `COC(=O)c1cc(Cl)c(O)c(S(=O)(=O)Nc2cc(-c3ccccc3)cc(F)c2F)c1` [I-111, Methyl 3-chloro-5-[(2,3-difluoro-5-phenylphenyl)sulfamoyl]-4-hydroxybenzoate], the pIC50 in assay [1] (setting [5]) and in assay [4] (setting [6]) was greater than 7.30 throughout. Moreover, the IC50 in assay [2] is 1 to 5 µM; in assay [3], greater than 10 µM.

As for `O=S(=O)(Nc1cc(-c2ccccc2)ccc1F)c1cc(Br)ccc1O` [I-113, N5-bromo-N-(2-fluoro-5-phenylphenyl)-2-hydroxybenzene-1-sulfonamide], the pIC50 in assay [1] is 4.52 to 6.30; in assay [4], 4.70 to 6.30. Besides, the IC50 lay in the range of 1 to 5 µM in assay [2] and 1 to 10 µM in assay [3].

In the case of `O=S(=O)(Nc1cc(-c2ccccc2)c(F)cc1F)c1cc(-c2ncco2)cc(Cl)c1O` [I-116, 3-chloro-N-[4,6-difluoro-[1,1-biphenyl]-3-yl]-2-hydroxy-5-(1,3-oxazol-2-yl)benzene-1-sulfonamide], the pIC50 in assay [1] (setting [5]) and in assay [4] (setting [6]) was greater than 7.30 throughout. The concentration for half-maximal inhibition (IC50) in assay [2] was 1 to 5 µM; in assay [3], greater than 10 µM.

Regarding `O=S(=O)(Nc1cc(-c2ccccc2)c(F)cc1F)c1cc(C(F)(F)F)cc(Cl)c1O` [I-117, 3-chloro-N-(4,6-difluoro-[1,1′-biphenyl]-3-yl)-2-hydroxy-5-(trifluoromethyl)benzenesulfonamide], the pIC50 in assay [1] (setting [5]) and in assay [4] (setting [6]) was greater than 7.30 each time. Further, the figures for the IC50 in assay [2] and in assay [3] were 1 to 5 µM and 1 to 10 µM, respectively.

In the case of `COC(=O)c1cc(Cl)c(O)c(S(=O)(=O)Nc2cc(-c3ccccc3)c(F)cc2F)c1C` [I-126, Methyl 5-chloro-3-([4,6-difluoro-[1,1-biphenyl]-3-yl]sulfamoyl)-4-hydroxy-2-methylbenzoate], the pIC50 in assay [1] is 6.30 to 7.30; in assay [4] (setting [6]), greater than 7.30. Also, the values for the half-maximal inhibitory concentration (IC50) in assay [2] and in assay [3] were 1 to 5 µM and 1 to 10 µM, respectively.

As for `COC(=O)c1cc(Cl)c(O)c(S(=O)(=O)Nc2cc(C3CC3)c(F)cc2F)c1` [I-127, Methyl 3-chloro-5-[(5-cyclopropyl-2,4-difluorophenyl)sulfamoyl]-4-hydroxybenzoate], the negative logarithm of the IC50 (pIC50) in assay [1] (setting [5]) and in assay [4] (setting [6]) was greater than 7.30 each time. In addition, the figures for the IC50 in assay [2] and in assay [3] were 1 to 5 µM and greater than 10 µM, respectively.

As for `COC(=O)c1cc(Cl)c(O)c(S(=O)(=O)Nc2cc(-c3cc4ccccc4s3)c(F)cc2F)c1` [I-128, Methyl 3-[[5-(1-benzothiophen-2-yl)-2,4-difluorophenyl]sulfamoyl]-5-chloro-4-hydroxybenzoate], the pIC50 in assay [1] (setting [5]) and in assay [4] (setting [6]) was greater than 7.30 in each case. The half-inhibitory concentration (IC50) in assay [2] is 5 to 20 µM; in assay [3], greater than 10 µM.

For the molecule `O=S(=O)(Nc1cc(-c2ccccc2)c(F)cc1F)c1cc(F)cc(Cl)c1O` [I-135, 3-chloro-N-[4,6-difluoro-[1,1-biphenyl]-3-yl]-5-fluoro-2-hydroxybenzene-1-sulfonamide], the pIC50 in assay [1] and in assay [4] was 6.30 to 7.30 throughout. Also, the IC50 in assay [2] was 1 to 5 µM; in assay [3] it was 1 to 10 µM.

Consider `O=C(c1cc(Cl)c(O)c(S(=O)(=O)Nc2cc(-c3cc4ccccc4s3)c(F)cc2F)c1)N1CCC1` [I-138, 5-(azetidine-1-carbonyl)-N-[5-(1-benzothiophen-2-yl)-2,4-difluorophenyl]-3-chloro-2-hydroxybenzene-1-sulfonamide], for which the pIC50 in assay [1] (setting [5]) and in assay [4] (setting [6]) was greater than 7.30 throughout. The IC50 in assay [2] lay in the range of 1 to 5 µM; in assay [3], 1 to 10 µM.

On to `COc1ccc(-c2ccccc2)cc1NS(=O)(=O)c1cc(C(=O)N2CCC2)cc(Cl)c1O` [I-145, 5-(azetidine-1-carbonyl)-3-chloro-2-hydroxy-N-[4-methoxy-[1,1-biphenyl]-3-yl]benzene-1-sulfonamide], for which the pIC50 in assay [1] (setting [5]) and in assay [4] (setting [6]) was greater than 7.30 each time. Besides, the IC50 in assay [2] is 1 to 5 µM; in assay [3], greater than 10 µM.

As for `COC(=O)c1cc(Cl)c(O)c(S(=O)(=O)Nc2cc(C(C)C)c(F)cc2F)c1` [I-198, Methyl 3-chloro-5-(N-(2,4-difluoro-5-isopropylphenyl)sulfamoyl)-4-hydroxybenzoate], the pIC50 in assay [1] (setting [5]) and in assay [4] (setting [6]) was greater than 7.30 in each case. Besides, the figures for the IC50 in assay [2] and in assay [3] were 1 to 5 µM and greater than 10 µM, respectively.

On to `O=C(O)c1ccc(-c2ccccc2)cc1NS(=O)(=O)c1cc(Cl)cc(Cl)c1` [I-208, 3-((3,5-dichlorophenyl)sulfonamido)-[1,1′-biphenyl]-4-carboxylic Acid], for which the pIC50 in assay [1] and in assay [4] was 6.30 to 7.30 throughout. In addition, the IC50 is 1 to 5 µM in assay [2] and 1 to 10 µM in assay [3].

As for `CC(C)C(=O)Oc1c(Cl)cc(-c2cncs2)cc1S(=O)(=O)Nc1cc(-c2ccccc2)c(F)cc1F` [I-213, 2-chloro-6-(N-(4,6-difluoro-[1,1′-biphenyl]-3-yl)sulfamoyl)-4-(thiazol-5-yl)phenyl Isobutyrate], the pIC50 in assay [1] and in assay [4] was 6.30 to 7.30 each time. Besides, the IC50 was 1 to 5 µM in assay [2] and 1 to 10 µM in assay [3].

`O=C(O)c1ccc(-c2ccccc2)cc1NS(=O)(=O)c1cc(F)cc(Cl)c1` [I-233, 3-((3-chloro-5-fluorophenyl)sulfonamido)-[1,1′-biphenyl]-4-carboxylic acid]: the negative-log IC50 (pIC50) in assay [1] was 6.30 to 7.30; in assay [4], 4.70 to 6.30. Moreover, the IC50 in assay [2] was 5 to 20 µM; in assay [3] it was 1 to 10 µM.

In the case of `O=S(=O)(Nc1ccc(-c2ccccn2)cc1F)c1cc(Cl)cc(Cl)c1O` [I-235, 3,5-dichloro-N-(2-fluoro-4-(pyridin-2-yl)phenyl)-2-hydroxybenzenesulfonamide], the pIC50 is 4.52 to 6.30 in assay [1] and 4.70 to 6.30 in assay [4]. Moreover, the IC50 in assay [2] is 1 to 5 µM; in assay [3] it was greater than 10 µM.
